# Assay results taken from ChEMBL document CHEMBL3244293, “Antiallergic activity of some 9H-xanthen-9-one-2-carboxylic acids” (J Med Chem, 1978).
# Tests used:
# [1] = tested on: Rattus norvegicus; assay: (§1) Antiallergic activity in anti-Nippostrongylus brasiliensis homocytotropic antibody-injected Sprague-Dawley rat assessed as inhibition of passive cutaneous anaphylaxis reaction at 5 mg/kg, ip administered 15 mins prior to worm extract antigen challenge measured 45 mins following antigen challenge by Evans blue dye staining; type: functional; conditions: route intraperitoneal
# [2] = tested on: Rattus norvegicus; assay: as §1, with “at 10” for “at 5”; type: functional; conditions: route intraperitoneal; for inhibition in vivo at 10 mg/kg: Rattus norvegicus, Sprague-Dawley, ip
# [3] = 1-Octanol-citrate buffer partition coefficient, log P of the compound at pH 4.0 by UV spectrometry; type: physicochemical
# [4] = tested on: Rattus norvegicus; assay: as §1, with “at 25” for “at 5”, “mg/kg, po” for “mg/kg, ip”, “administered 8” for “administered 15”; type: functional
logD [3],SMILES,inhibition in vivo at 5 mg/kg [1] [%],inhibition in vivo at 10 mg/kg [2] [%],log(%) [2],inhibition in vivo at 25 mg/kg [4] [%]
–,COc1ccc(SCC(O)COc2ccc3oc4ccc(C(=O)O)cc4c(=O)c3c2)cc1 (stereo not given),51,–,–,–
2.58,O=C(O)c1ccc2oc3ccc(OCC(O)CSC45CC6CC(CC(C6)C4)C5)cc3c(=O)c2c1 (stereo not given),–,16,1.2,–
–,O=C(O)c1ccc2oc3ccc(OCC(O)C[S+]([O-])c4ccccc4)cc3c(=O)c2c1 (stereo not given),42,–,–,–
2.31,O=C(O)c1ccc2oc3ccc(OCC(O)COCCO)cc3c(=O)c2c1 (stereo not given),–,77,1.89,–
–,O=C(O)c1cc(=O)c2c(OCC(O)COc3cccc4oc(C(=O)O)cc(=O)c34)cccc2o1 [CROMOLYN SODIUM],–,89,–,–
–,O=C(O)c1ccc2oc3ccc(OCC(O)CSc4ccc(F)cc4)cc3c(=O)c2c1 (stereo not given),38,–,–,–
1.36,C[S+]([O-])CC(O)COc1ccc2oc3ccc(C(=O)O)cc3c(=O)c2c1 (stereo not given),–,100,2,0
2.81,CCCCCCCSCC(O)COc1ccc2oc3ccc(C(=O)O)cc3c(=O)c2c1 (stereo not given),–,17,1.23,–
2.83,CC(C)(C)SCC(O)COc1ccc2oc3ccc(C(=O)O)cc3c(=O)c2c1 (stereo not given),–,83,1.92,–
2.13,COCC(O)COc1ccc2oc3ccc(C(=O)O)cc3c(=O)c2c1 (stereo not given),–,29,1.46,–
2.32,O=C(O)c1ccc2oc3ccc(OCC(O)CSCCO)cc3c(=O)c2c1 (stereo not given),–,100,2,0
2.95,O=C(O)c1ccc2oc3ccc(OCC(O)CSC4CCCCC4)cc3c(=O)c2c1 (stereo not given),–,39,1.59,–
–,O=C(O)c1ccc2oc3ccc(OCC(O)CSc4ccc(Cl)cc4)cc3c(=O)c2c1 (stereo not given),37,–,–,–
2.33,O=C(O)c1ccc2oc3ccc(OCC(O)CO)cc3c(=O)c2c1 (stereo not given),–,78,1.89,19
–,O=C(O)c1ccc2oc3ccc(OCCO)cc3c(=O)c2c1,100,100,–,100
3.14,O=C(O)c1ccc2oc3ccc(OCC(O)COCC(F)(F)F)cc3c(=O)c2c1 (stereo not given),–,100,2,0
–,O=C(O)c1ccc2oc3ccc(OCC(O)CSc4ccc(Cl)c(Cl)c4)cc3c(=O)c2c1 (stereo not given),7,–,–,–
2.08,COCCOCC(O)COc1ccc2oc3ccc(C(=O)O)cc3c(=O)c2c1 (stereo not given),–,99,2,15
–,O=C(O)c1ccc2oc3ccc(OCC(O)CSc4ccc(Br)cc4)cc3c(=O)c2c1 (stereo not given),14,–,–,–
3.8,O=C(O)c1ccc2oc3ccc(OCC(O)CSc4ccccc4)cc3c(=O)c2c1 (stereo not given),88,100,2,22
2.81,CSCC(O)COc1ccc2oc3ccc(C(=O)O)cc3c(=O)c2c1 (stereo not given),–,71,1.85,48
3.06,CC(C)SCC(O)COc1ccc2oc3ccc(C(=O)O)cc3c(=O)c2c1 (stereo not given),–,38,1.54,–
